“And” between values parts separate entries of the source, which are not always exact repeats. Equal values may be shown once.
What was measured:
[1] = Solubility as a function of HP-β-CD concentration, without pH adjustment (purified water); format: physicochemical; details: no pH adjustment
Description: Various concentrations of HP-β-CD aqueous solutions were prepared by adding appropriate amounts of HP-β-CD at 0.5%, 1%, 2%, 3%, 4%, and 5% (w/v) in tertiary purified water. An excess of KR-67607 was added to the above HP-β-CD solution and stirred for 24 hours, then the supernatant was collected, filtered through a 0.2 μm PVDF filter, and 1 mL was added to a 10 mL volumetric flask and labeled with methanol.
The standard was 50 mg of KR-67607 accurately weighed and placed in a 50 mL volumetric flask and completely dissolved/stained with methanol. 1, 2, 4, 6, 8, 10 mL of the standard was accurately taken and placed in a 20 mL volumetric flask, and the one labeled with methanol was used as the standard.
The UV analysis conditions are as follows • Wavelength: 255 nm • Cell: 10 mm Quartz cell
KR-67607 concentration (μg/mL)=(UV absorbance of the sample−y-intercept of the standard curve)/(slope of the standard curve)×dilution factor of the sample. [Formula]

[2] = Appearance of HP-β-CD solutions of KR-67607 prepared at various pH; format: physicochemical; details: solution before entrapment under alkaline conditions; 3% HP-β-CD, 0.15% KR-67607
Description: HP-β-CD aqueous solutions of various pH were prepared by adding 3% (w/v) appropriate amount of HP-β-CD to 0.08M NaOH aqueous solution, tertiary purified water, and 1M HCl aqueous solution. To each of the above different HP-β-CD solutions, 0.15% (w/v) KR-67607 was added and stirred for 1 hour, and then potassium dihydrogen phosphate, sodium chloride, and povidone K90 were mixed to a concentration of 0.68%, 0.435%, and 1.2% (w/v), respectively, to dissolve completely. The pH of the solution was adjusted to around 7.4 with 0.1 N HCl or 0.1 N NaOH aqueous solution, and then the total volume was adjusted by adding sterile purified water. The prepared solution was filtered through a 0.2 μm PVDF filter and evaluated for comparative appearance against a black background, and the results are shown in FIG. 5.

DBA/2 mice [3] = assay: Intraocular pressure in ocular hypertensive glaucoma mouse model; format: in vivo; details: for IOP reduced compared to control group: week 16, 20 μl both eyes twice daily
Description: In this study, we evaluated the efficacy of KR-67607 in a mouse model of glaucoma using DBA/2 mice, which are congenitally predisposed to persistently elevated intraocular pressure (FIG. 9).
IOP was measured after the acclimatization period and then every 4 weeks. IOP was measured in respiratory anesthetized mice according to the manufacturer's instructions and the mean value presented after six measurements was recorded.

DBA/2 mice [4] = assay: Retinal electroretinogram in glaucoma mouse model; format: in vivo; details: after 8 weeks; right eye only; 0.3 log cd×s/m^2 stimulation; high-dose; transient
Description: […] was performed according to the manufacturer's instructions after mice were anesthetized by instilling 20 μl of paracaine eye drops 0.5% in both eyes. The electrodes were placed on the scalp, tail, and cornea, respectively, and a certain amount of monochromatic white light stimulation was applied to perform retinal electroretinography. The response value of the stimulated retina and the amplitude from the crest of the a-wave to the peak of the b-wave were measured and evaluated as an indicator of retinal function.
To determine the effect of KR-67607 on retinal dysfunction and optic nerve damage, the electroretinograms of mice in the study were measured at 4-week intervals for 16 weeks. The electroretinograms were quantified by analyzing responses obtained by exposing the left and right eyes of the mice to −0.9, 0.3, and 1.2 log cd×s/m^2 of light, respectively. […] Before drug administration, there was no significant difference in retinal electroretinograms between the control, drug, and positive control groups. […] This effect was only transient at week 8, and no significant difference was seen from week 12.

[5] = test system: New Zealand White rabbit ocular hypertension model animals; assay: IOP-lowering efficacy in rabbit ocular hypertension model (scleral vein ligation); format: in vivo
Description: This study was conducted in male New Zealand White rabbit ocular hypertension model animals (intraocular pressure ≥17 mmHg) induced by scleral vein ligation to determine the effectiveness of KR-67607 eye drops in reducing ocular hypertension after repeated twice daily ophthalmic administration for 11 days.
Sterile physiological saline (negative control), Xalatan, Timoptic, Trusopt, Xalacom, and KR-67607 eye drops were administered twice daily for 11 days, and mortality and general symptoms were monitored, body weight was measured, feed intake was measured, and intraocular pressure was measured.

[6] = test system: cynomolgus macaque model of glaucoma; assay: Retinal nerve fiber layer thickness by OCT in cynomolgus macaque model of glaucoma; format: in vivo
Description: Three weeks before the first laser trabeculoplasty, IOP was measured via a tomometer (SPHPR-320-61), once per week for three weeks. The first laser trabeculoplasty was performed in one eye for each macaque. Two weeks later, laser trabeculoplasty was repeated in the same eye (Week 0).
One week after the second laser trabeculoplasty (Week 1), IOP was measured and retinal nerve fiber layer (RNFL) thickness was measured via optical coherence tomography (OCT; RS3000 Advance, Nidek Co. Ltd., Gamagoori, Japan) (SPHPR- 320-58). The day after group assignment, the eyes were instilled with either vehicle, KR-67607 or brimonidine twice a day. On Day 1, the effect of treatment on IOP over time was measured before treatment and 1, 2, 4, and 8 hrs. after instillation. At the same time, blood samples were obtained. From the effects of dosing observed on Day 1, it was determined that 2 hrs. was a reasonable time time-to-test following instillation for subsequent observations.
Intraocular pressures were obtained at Weeks 2, 3, 4, 5, 7 and 9. Optical coherence tomography and color fundus photography (CFP) were performed at Weeks 1, 3, 5, 7, and 9 (SPHPR-320-56).

DBA/2 mice [7] = assay: Histology and immunostaining of retina and optic nerve head in glaucoma mouse model; details: after 16 weeks of drug treatment
Description: After drug administration was terminated, the mice's eyes were enucleated and tissues were analyzed (FIGS. 14 to 26).
The optic nerve papilla area was analyzed by H&E staining, Caspase-3, 9, and TUNEL staining in retinal tissue removed and fixed from eyes of mice after 16 weeks of drug treatment. […] To determine the degree of cell death in the damaged optic nerve papilla tissue, Caspase-3, 9 staining (FIGS. 15 and 16), an indicator of early apoptosis, and TUNEL staining (FIG. 17), an indicator of late apoptosis, were performed.

SMILES: CC1CN(CC(=O)NC2C3CC4CC2CC(C(N)=O)(C4)C3)S(=O)(=O)N(c2c(Cl)cc(C(F)(F)F)cc2Cl)C1 [KR-67607, (1s, 3R,4s,5S,7s)-4-(2-(6-(2,6-dichloro-4-(trifluoromethyl)phenyl)-4-methyl-1,1-dioxido-1,2,6-thiadiazinan-2-yl)acetamido)adamantane-1-carboxamide]
- the solubility of KR-67607 ([1]; HP-β-CD 0.5 % w/v in purified water): 1200 µg/mL
- the solubility of KR-67607 ([1]; HP-β-CD 1.0 % w/v in purified water): 2550 µg/mL
- the solubility of KR-67607 ([1]; HP-β-CD 2.0 % w/v in purified water): 4230 µg/mL
- the solubility of KR-67607 ([1]; HP-β-CD 3.0 % w/v in purified water): 6000 µg/mL
- the solubility of KR-67607 ([1]; HP-β-CD 4.0 % w/v in purified water): 6910 µg/mL
- the solubility of KR-67607 ([1]; HP-β-CD 5.0 % w/v in purified water): 7250 µg/mL
- entrapment ability of HP-β-CD for KR-67607 (appearance, FIG. 5) [2]: enhanced
- week from which significant IOP reduction was seen (DBA/2 mice [3]; high dose KR-67607 (1.5 mg/ml)): 4 week
- week from which IOP-lowering effects were observed (DBA/2 mice [3]; low-dose KR-67607 (0.75 mg/ml)): 12 week
- IOP reduced compared to control group (DBA/2 mice [3]; high-dose KR-67607 (1.5 mg/ml)): 26%
- IOP reduced compared to control group (DBA/2 mice [3]; low concentration KR-67607 (0.75 mg/ml)): 16%
- retinal electroretinograms compared to control group (DBA/2 mice [4]): significant increase
- IOP reduction greater than in the negative control group ([5]; Day 5): 34.4%
- IOP reduction greater than in the negative control group ([5]; Day 8): 45.5%
- IOP compared to 100% of pre-dose IOP ([5]; day 5, twice daily ophthalmic administration): 49.0% and 60.1%
- greater IOP reduction than the Xalacom treatment group ([5]; day 8): 3.6%
- RNFL thickness compared with vehicle treatment ([6]; 5 weeks, unpaired t-test, p<0.05): greater
- number of eyes with RNFL thickness greater than 50% compared to baseline ([6]; Week 9, 6 eyes per group): 3
- RNFL thinning in glaucomatous eyes ([6]; repeated treatment, compared to vehicle-treated (G1)): significantly inhibited
- inhibitory effect on RNFL thinning relative to brimonidine ([6]; summary): greater than that of brimonidine
- Brn3a expression in flat-mounted retinal tissue (DBA/2 mice [7]): relatively increased
- GABAergic amacrine cells (DBA/2 mice [7]): relatively increased
- GFAP expression (activated astrocytes) in optic nerve (DBA/2 mice [7]): less concentrated
- GLT-1 expression in retina (DBA/2 mice [7]): no quantitative or qualitative difference
- degree of retinal ganglion cell death (caspase-3 and 9) (DBA/2 mice [7]): relatively reduced
- glaucomatous histologic features of optic nerve papilla (H&E: cupping, nerve fiber layer thinning) (DBA/2 mice [7]): alleviated
- loss of retinal ganglion cells (H&E) (DBA/2 mice [7]): less loss
- number of Iba-1 positive microglia (DBA/2 mice [7]): decreased
- number of caspase-3, 9 expressing and TUNEL-positive cells in optic nerve papillae (DBA/2 mice [7]): significantly reduced
